Assay results from BindingDB's records for doi:10.1002/cmdc.201100077 (Zydus Research Centre, 2011).

What was measured:
[1] = target: T1, Tyrosine-protein phosphatase non-receptor type 2 (Homo sapiens, UniProt P17706); assay: Enzyme Assays
T1 sequence (P17706 whole entry): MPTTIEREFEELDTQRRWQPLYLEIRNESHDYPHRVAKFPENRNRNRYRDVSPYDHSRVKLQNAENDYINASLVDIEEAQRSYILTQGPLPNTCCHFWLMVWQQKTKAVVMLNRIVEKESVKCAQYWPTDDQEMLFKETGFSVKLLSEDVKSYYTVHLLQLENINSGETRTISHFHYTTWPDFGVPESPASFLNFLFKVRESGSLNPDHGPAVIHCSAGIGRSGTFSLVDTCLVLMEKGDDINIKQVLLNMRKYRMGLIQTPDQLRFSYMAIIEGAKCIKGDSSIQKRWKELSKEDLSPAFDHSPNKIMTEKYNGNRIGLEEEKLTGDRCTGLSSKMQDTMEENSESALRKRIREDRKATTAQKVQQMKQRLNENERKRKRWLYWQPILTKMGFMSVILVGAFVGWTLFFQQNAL
Description: (§1) The in vitro enzyme inhibitory activity was evaluated by using the pNPP assay. Para-nitrophenylphosphate (pNPP) and test compounds were added to assay buffer, and reactions were initiated by the addition of PTP1B or TCPTP (10-100 nM).

[2] = target: T2, Tyrosine-protein phosphatase non-receptor type 1 (Homo sapiens, UniProt P18031); assay: Enzyme Assays
T2 sequence (P18031 whole entry): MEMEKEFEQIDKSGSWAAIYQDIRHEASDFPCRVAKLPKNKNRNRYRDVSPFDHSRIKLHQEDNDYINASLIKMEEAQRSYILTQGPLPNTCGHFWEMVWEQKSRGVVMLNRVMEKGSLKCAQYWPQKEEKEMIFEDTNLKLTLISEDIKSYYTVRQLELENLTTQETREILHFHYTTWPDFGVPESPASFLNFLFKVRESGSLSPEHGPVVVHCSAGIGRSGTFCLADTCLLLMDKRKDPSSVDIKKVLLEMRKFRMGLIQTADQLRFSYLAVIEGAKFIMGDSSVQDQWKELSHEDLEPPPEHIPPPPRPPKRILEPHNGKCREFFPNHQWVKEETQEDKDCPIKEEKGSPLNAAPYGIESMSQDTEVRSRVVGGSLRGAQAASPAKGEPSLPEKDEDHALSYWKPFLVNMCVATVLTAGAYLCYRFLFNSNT
Description: as §1

## O=C(c1ccccc1)C(Cc1ccc2cc(Br)c(C(F)(F)P(=O)(O)O)cc2c1)(Cc1ccc2cc(Br)c(C(F)(F)P(=O)(O)O)cc2c1)n1nnc2ccccc21
[1]
  IC50: 580 nM
[2]
  IC50: 5 nM

## O=C(c1ccccc1)C(Cc1ccc(C(F)(F)P(=O)(O)O)c(Br)c1)(Cc1ccc2cc(Br)c(C(F)(F)P(=O)(O)O)cc2n1)n1nnc2ccccc21 (stereo not drawn) [({2-[2-(1H-1,2,3-benzotriazol-1-yl)-2-({3-bromo-4-[difluoro(phosphono)methyl]phenyl}methyl)-3-oxo-3-phenylpropyl]-6-bromoquinolin-7-yl}difluoromethyl)phosphonic acid (10l)]
[2]
  IC50: 21 nM

## O=C(c1ccccc1)C(Cc1ccc2cc(Br)c(C(F)(F)P(=O)(O)O)cc2n1)(Cc1ccc2cc(Br)c(C(F)(F)P(=O)(O)O)cc2n1)n1nnc2ccccc21 [({2-[2-(1H-1,2,3-benzotriazol-1-yl)-2-({6-bromo-7-[difluoro(phosphono)methyl]quinolin-2-yl}methyl)-3-oxo-3-phenylpropyl]-6-bromoquinolin-7-yl}difluoromethyl)phosphonic acid (10n)]
[1]
  IC50: 101 nM
[2]
  IC50: 5 nM

## N[S+]([O-])C(F)(F)c1ccc(CC(Cc2ccc3cc(Br)c(C(F)(F)P(=O)(O)O)cc3n2)(C(=O)c2ccccc2)n2nnc3ccccc32)cc1Br (stereo not drawn) [({2-[2-({4-[(aminosulfinyl)difluoromethyl]-3-bromophenyl}methyl)-2-(1H-1,2,3-benzotriazol-1-yl)-3-oxo-3-phenylpropyl]-6-bromoquinolin-7-yl}difluoromethyl)phosphonic acid (10m)]
[2]
  IC50: 22 nM

## N[S+]([O-])C(F)(F)c1cc2nc(CC(Cc3ccc4cc(Br)c(C(F)(F)P(=O)(O)O)cc4n3)(C(=O)c3ccccc3)n3nnc4ccccc43)ccc2cc1Br (stereo not drawn) [({2-[2-({7-[(aminosulfinyl)difluoromethyl]-6-bromoquinolin-2-yl}methyl)-2-(1H-1,2,3-benzotriazol-1-yl)-3-oxo-3-phenylpropyl]-6-bromoquinolin-7-yl}difluoromethyl)phosphonic acid (10o)]
[1]
  IC50: 82 nM
[2]
  IC50: 4 nM

## O=C(c1ccccc1)C(Cc1ccc(C(F)(F)P(=O)(O)O)c(Br)c1)(Cc1ccc2cc(Br)c(C(F)(F)P(=O)(O)O)cc2c1)n1nnc2ccccc21 (stereo not drawn) [({7-[2-(1H-1,2,3-benzotriazol-1-yl)-2-({3-bromo-4-[difluoro(phosphono)methyl]phenyl}methyl)-3-oxo-3-phenylpropyl]-3-bromonaphthalen-2-yl}difluoromethyl)phosphonic acid (10b)]
[1]
  IC50: 201 nM
[2]
  IC50: 20 nM

## O=C(c1ccccc1)C(Cc1ccc(C(F)(F)P(=O)(O)O)cc1)(Cc1ccc2cc(Br)c(C(F)(F)P(=O)(O)O)cc2c1)n1nnc2ccccc21 (stereo not drawn) [({7-[2-(1H-1,2,3-benzotriazol-1-yl)-2-({4-[difluoro(phosphono)methyl]phenyl}methyl)-3-oxo-3-phenylpropyl]-3-bromonaphthalen-2-yl}difluoromethyl)phosphonic acid (10a)]
[2]
  IC50: 46 nM

## O=C(c1ccccc1)C(Cc1ccc(Br)c(C(F)(F)P(=O)(O)O)c1)(Cc1ccc2cc(Br)c(C(F)(F)P(=O)(O)O)cc2c1)n1nnc2ccccc21 (stereo not drawn) [({7-[2-(1H-1,2,3-benzotriazol-1-yl)-2-({4-bromo-3-[difluoro(phosphono)methyl]phenyl}methyl)-3-oxo-3-phenylpropyl]-3-bromonaphthalen-2-yl}difluoromethyl)phosphonic acid (10c)]
[2]
  IC50: 404 nM

## O=C(c1ccccc1)C(Cc1ccc2cc(Br)c(C(F)(F)P(=O)(O)O)cc2c1)(Cc1ccc2cc(Br)c(C(F)(F)P(=O)(O)O)cc2n1)n1nnc2ccccc21 (stereo not drawn) [({7-[2-(1H-1,2,3-benzotriazol-1-yl)-2-({6-bromo-7-[difluoro(phosphono)methyl]quinolin-2-yl}methyl)-3-oxo-3-phenylpropyl]-3-bromonaphthalen-2-yl}difluoromethyl)phosphonic acid (10i)]
[1]
  IC50: 90 nM
[2]
  IC50: 3 nM

## O=C1CC(c2ccc(CC(Cc3ccc4cc(Br)c(C(F)(F)P(=O)(O)O)cc4c3)(C(=O)c3ccccc3)n3nnc4ccccc43)cc2F)S(=O)(=O)N1 (stereo not drawn) [({7-[2-(1H-1,2,3-benzotriazol-1-yl)-2-{[3-fluoro-4-(1,1,3-trioxo-1λ⁶,2-thiazolidin-5-yl)phenyl]methyl}-3-oxo-3-phenylpropyl]-3-bromonaphthalen-2-yl}difluoromethyl)phosphonic acid (10g)]
[2]
  IC50: 919 nM

## Cc1cc(CC(Cc2ccc3cc(Br)c(C(F)(F)P(=O)(O)O)cc3c2)(C(=O)c2ccccc2)n2nnc3ccccc32)ccc1C1CC(=O)NS1(=O)=O (stereo not drawn) [({7-[2-(1H-1,2,3-benzotriazol-1-yl)-2-{[3-methyl-4-(1,1,3-trioxo-1λ⁶,2-thiazolidin-5-yl)phenyl]methyl}-3-oxo-3-phenylpropyl]-3-bromonaphthalen-2-yl}difluoromethyl)phosphonic acid (10f)]
[2]
  IC50: 924 nM

## O=C1CC(c2ccc(CC(Cc3ccc4cc(Br)c(C(F)(F)P(=O)(O)O)cc4c3)(C(=O)c3ccccc3)n3nnc4ccccc43)cc2)S(=O)(=O)N1 (stereo not drawn) [({7-[2-(1H-1,2,3-benzotriazol-1-yl)-3-oxo-3-phenyl-2-{[4-(1,1,3-trioxo-1λ⁶,2-thiazolidin-5-yl)phenyl]methyl}propyl]-3-bromonaphthalen-2-yl}difluoromethyl)phosphonic acid (10e)]
[2]
  IC50: 930 nM

## N[S+]([O-])C(F)(F)c1ccc(CC(Cc2ccc3cc(Br)c(C(F)(F)P(=O)(O)O)cc3c2)(C(=O)c2ccccc2)n2nnc3ccccc32)cc1Br (stereo not drawn) [({7-[2-({4-[(aminosulfinyl)difluoromethyl]-3-bromophenyl}methyl)-2-(1H-1,2,3-benzotriazol-1-yl)-3-oxo-3-phenylpropyl]-3-bromonaphthalen-2-yl}difluoromethyl)phosphonic acid (10d)]
[1]
  IC50: 192 nM
[2]
  IC50: 19 nM

## N[S+]([O-])C(F)(F)c1cc2cc(CC(Cc3ccc4cc(Br)c(C(F)(F)P(=O)(O)O)cc4c3)(C(=O)c3ccccc3)n3nnc4ccccc43)ccc2cc1Br (stereo not drawn) [({7-[2-({7-[(aminosulfinyl)difluoromethyl]-6-bromonaphthalen-2-yl}methyl)-2-(1H-1,2,3-benzotriazol-1-yl)-3-oxo-3-phenylpropyl]-3-bromonaphthalen-2-yl}difluoromethyl)phosphonic acid (10j)]
[1]
  IC50: 480 nM
[2]
  IC50: 4 nM

## N[S+]([O-])C(F)(F)c1cc2nc(CC(Cc3ccc4cc(Br)c(C(F)(F)P(=O)(O)O)cc4c3)(C(=O)c3ccccc3)n3nnc4ccccc43)ccc2cc1Br (stereo not drawn) [({7-[2-({7-[(aminosulfinyl)difluoromethyl]-6-bromoquinolin-2-yl}methyl)-2-(1H-1,2,3-benzotriazol-1-yl)-3-oxo-3-phenylpropyl]-3-bromonaphthalen-2-yl}difluoromethyl)phosphonic acid (10k)]
[1]
  IC50: 185 nM
[2]
  IC50: 6 nM
